According to patent US9688637B2, “3-amidobenzamides and uses thereof for increasing cellular levels of A3G and other A3 family members” (Northwestern University, priority 2014, dated 2017):

Assays:
[1] = system: HEK293; assay: Cancer cell death, cell numbers vs DMSO; format: cell-based, human; details: 6 μM, 16 days; embryonic kidney cell line lacking A3B, wild-type functional p53
Text: (§1) To test the effect of the compounds described below on cancer cell death, cell lines derived from different types of cancer were studied in vitro. MCF10A, MCF7, T47D, MDA-MB-157 and MDA-MB-231 are breast cancer cell lines. NHPrE, BHPrE, RWPE1, DU145, and PC3 cells are prostate cell lines. HeLa is cervical cancer cell line. HEK293 is human embryonic kidney cell line lacking A3B expression. There are differences among these cancer cell lines in p53 expression (44-46). MCF10A, MCF7, NHPrE, BHPrE and HEK293 cells have wild-type and functional p53. RWPE1 and HeLa cells have wild-type p53 but the p53 protein in these cell line is not functional because of effects of human papilloma virus E6 protein. T47D, MDA-MB-231, and DU145 cell lines have mutant p53, while MDA-MB-157 and PC3 cells have no p53 expression. 25,000 cells per well were plated in 6 well plates. In the case of HEK293 cells. 500,000 cells per well in 6-well plates were used instead. After 24 hrs, culture medium was replaced with new medium containing either DMSO as control or one of the compounds described below (6 μM per well concentration). After 8 days incubation with compounds, cell numbers were counted from each well and plotted with number of cells from DMSO treated sample as 100%. We performed the experiments at least twice. HEK293, MCF7 and T47D cells they were maintained for 16 days with compounds instead of 8 days.

[2] = system: A3G-Luc; assay: A3G-Luc luciferase screen in 293T cells stably expressing A3G-Luc; format: cell-based, human; details: for A3G-Luc Activity (% of Relative Light Units compared to DMSO treated control): 10 μM, 48 hrs, DMSO = 100%
[3] = system: A3G-Luc/Vif; assay: A3G-Luc/Vif luciferase screen in 293T cells stably co-expressing A3G-Luc and HIV-1 Vif; format: cell-based, human; details: for Vif-A3G-Luc Activity (% of RLUs compared to DMSO treated control): 10 μM, 48 hrs, DMSO = 100%
[4] = system: MDA-MB-157; assay: Cancer cell death, cell numbers vs DMSO; format: cell-based; details: 6 μM, 8 days; breast cancer cell line, no p53 expression
Text: as §1

[5] = system: PC3; assay: Cancer cell death, cell numbers vs DMSO; format: cell-based; details: 6 μM, 8 days; prostate cell line, no p53 expression
Text: as §1

[6] = system: BHPrE; assay: Cancer cell death, cell numbers vs DMSO; format: cell-based; details: 6 μM, 8 days; prostate cell line, wild-type functional p53
Text: as §1

[7] = system: MDA-MB-231; assay: Cancer cell death, cell numbers vs DMSO; format: cell-based; details: 6 μM, 8 days; breast cancer cell line, mutant p53
Text: as §1

[8] = system: NHPrE; assay: Cancer cell death, cell numbers vs DMSO; format: cell-based; details: 6 μM, 8 days; prostate cell line, wild-type functional p53
Text: as §1

[9] = system: MCF7; assay: Cancer cell death, cell numbers vs DMSO; format: cell-based; details: 6 μM, 16 days; breast cancer cell line, wild-type functional p53
Text: as §1

[10] = system: RWPE1; assay: Cancer cell death, cell numbers vs DMSO; format: cell-based; details: 6 μM, 8 days; prostate cell line, p53 not functional
Text: as §1

[11] = system: HeLa; assay: Cancer cell death, cell numbers vs DMSO; format: cell-based; details: 6 μM, 8 days; cervical cancer cell line, p53 not functional
Text: as §1

[12] = system: DU145; assay: Cancer cell death, cell numbers vs DMSO; format: cell-based; details: 6 μM, 8 days; prostate cell line, mutant p53
Text: as §1

[13] = system: MCF10A; assay: Cancer cell death, cell numbers vs DMSO; format: cell-based; details: 6 μM, 8 days; breast cell line, wild-type functional p53
Text: as §1

[14] = system: T47D; assay: Cancer cell death, cell numbers vs DMSO; format: cell-based; details: 6 μM, 16 days; breast cancer cell line, mutant p53
Text: as §1

Row | Compound | cell killing (cell numbers vs DMSO) [1] | A3G-Luc Activity (% of Relative Light Units compared to DMSO treated control) [2] [%] | increase of A3G ([2]; 293T stably expressing A3G-Luc, without Vif (FIG. 6)) | Vif-A3G-Luc Activity (% of RLUs compared to DMSO treated control) [3] [%] | increase of A3G ([3]; 293T stably expressing A3G-Luc, with Vif (FIG. 6)) | cell killing (cell numbers vs DMSO) [4] | cell killing (cell numbers vs DMSO) [5] | cell killing (cell numbers vs DMSO) [6] | cell killing (cell numbers vs DMSO) [7] | cell killing (cell numbers vs DMSO) [8] | cell killing (cell numbers vs DMSO) [9] | cell killing (cell numbers vs DMSO) [10] | cell killing (cell numbers vs DMSO) [11] | cell killing (cell numbers vs DMSO) [12] | cell killing (cell numbers vs DMSO) [13] | cell killing (cell numbers vs DMSO) [14]
1 | COc1ccc(C(=O)Nc2ccc(Cl)c(Cl)c2)cc1NC(=O)C(C)C [NU-52] | not killed | 178 | about 3 fold | 135 | about 3 fold | kill | kill | not killed | kill | not killed | not killed | kill | kill | kill | not killed | kill
2 | COc1ccc(C(=O)Nc2ccc(Cl)c(Cl)c2)cc1NC(=O)C1CCC1 [NU-302] | not killed | 196 |  | 167 |  | kill | kill | not killed | kill | not killed | not killed | kill | kill | kill | not killed | kill
3 | COc1ccc(C(=O)Nc2ccc(Cl)c(Cl)c2)cc1NC(=O)CC1CC1 [NU-466] | not killed | 318 |  | 202 |  | kill | kill | not killed | kill | not killed | not killed | kill | kill | kill | not killed | kill
